The supplement of paper PMC11208160

Assay: recombinant UMI read abundance after kanamycin selection (control-corrected) (log10(CPM+1)); higher = more efficient recombination; extreme values may be limits of the assay; sequences stand for … in AGTGCAGAGAAAATCGGCCAGTTTTCTCTGCCTGCAGTCCGCATGCCGTGGGACCCCTTGGGTTCTAACCTGTTGCCTAGATTTATGCAGCGGACTGCCTTTCTCCCAAAGTGATAAACCGG…AGGTTGGTTTCACT; site = the 11-nt donor
Method in brief: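 Each donor and donor-binding-loop pair was tracked by a 12-nt UMI on a plasmid carrying a promoterless kanamycin gene. With a second plasmid supplying a fixed target and T7-inducible IS621 bridge recombinase, the pool was plated in Escherichia coli on IPTG (0.07 mM) plus kanamycin or unselected. Sequencing of recombinant UMIs across the donor–target junction gave counts expressed as log10(CPM+1) after replicate averaging and control-derived scaling.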
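Also: IS621 bridge recombinase in Escherichia coli cells against a fixed T5 target plasmid.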

| Sequence | recombinant UMI read abundance (log10) |
| --- | --- |
| AGCTAACCATGGACCGGTTTTCCCGGTAATCCGTATTTGTG (site AGCTAACCTCA) | 0.00444 |
| AGCTACGCATGGACCGGTTTTCCCGGTAATCCGTATTTGGG (site AGCTACGCTCC) | 0.0157 |
| AGCTATGCATGGACCGGTTTTCCCGGTAATCCGTATTTGAT (site AGCTATGCTAT) | 1.79 |
| AGCTCGGCATGGACCGGTTTTCCCGGTAATCCGTATTTGGG (site AGCTCAGCTCC) | 0.0161 |
| AGCTCGGCATGGACCGGTTTTCCCGGTAATCCGTATTTGGG (site AGCTCCGCTCC) | 0.0225 |
| AGCTCGGCATGGACCGGTTTTCCCGGTAATCCGTATTTGGG (site AGCTCGGCTCC) | 0 |
| AGCTCGGCATGGACCGGTTTTCCCGGTAATCCGTATTTGGG (site AGCTCTGCTCC) | 0 |
| AGCTCTACATGGACCGGTTTTCCCGGTAATCCGTATTTGAA (site AGCTCTACTTT) | 0 |
| AGCTCTGCATGGACCGGTTTTCCCGGTAATCCGTATTTGGT (site AGCTCTGCTAC) | 1.36 |
| AGCTGAGCATGGACCGGTTTTCCCGGTAATCCGTATTTGCC (site AGCTGAGCTGG) | 0.908 |
| AGCTTGCCATGGACCGGTTTTCCCGGTAATCCGTATTTGGC (site AGCTTGCCTGC) | 0 |
| AGCTTGTCATGGACCGGTTTTCCCGGTAATCCGTATTTGAG (site AGCTTGTCTCT) | 1.62 |
| AGGAAATCATGGACCGGTTTTCCCGGTAATCCGTATTTGCA (site AGGAAATCTTG) | 1.9 |
| AGGAAATCATGGACCGGTTTTCCCGGTAATCCGTATTTGCA (site AGGAAGACTTG) | 0 |
| AGGAAATCATGGACCGGTTTTCCCGGTAATCCGTATTTGGT (site AGGAAATCTAC) | 1.73 |
| AGGAAGACATGGACCGGTTTTCCCGGTAATCCGTATTTGCG (site AGGAAGACTAG) | 0.0723 |
| AGGAAGACATGGACCGGTTTTCCCGGTAATCCGTATTTGCG (site AGGAAGACTCG) | 2.32 |
| AGGAAGACATGGACCGGTTTTCCCGGTAATCCGTATTTGCG (site AGGAAGACTGG) | 0 |
| AGGAAGACATGGACCGGTTTTCCCGGTAATCCGTATTTGCG (site AGGAAGACTTG) | 1.73 |
| AGGAATACATGGACCGGTTTTCCCGGTAATCCGTATTTGCT (site AGGAAGACTTG) | 0 |
| AGGAATACATGGACCGGTTTTCCCGGTAATCCGTATTTGCT (site AGGAATACTAG) | 2.18 |
| AGGAATCCATGGACCGGTTTTCCCGGTAATCCGTATTTGTA (site AGGAATCCTTA) | 0.615 |
| AGGAATCCATGGACCGGTTTTCCCGGTAATCCGTATTTGTA (site CGGAATCCTAA) | 0.00925 |

| Sequence | recombinant UMI read abundance (log10) |
| --- | --- |
| AGGACACCATGGACCGGTTTTCCCGGTAATCCGTATTTGTA (site AGGACACCTTA) | 0.189 |
| AGGACATCATGGACCGGTTTTCCCGGTAATCCGTATTTGCT (site AGGACATCTAG) | 1.48 |
| AGGACATCATGGACCGGTTTTCCCGGTAATCCGTATTTGCT (site CGGACATCTAG) | 1.01 |
| AGGACATCATGGACCGGTTTTCCCGGTAATCCGTATTTGCT (site GGGACATCTAG) | 0.0498 |
| AGGACATCATGGACCGGTTTTCCCGGTAATCCGTATTTGCT (site TGGACATCTAG) | 1.15 |
| AGGACCCCATGGACCGGTTTTCCCGGTAATCCGTATTTGGT (site AGGACCCCTAC) | 0.297 |
| AGGACGGCATGGACCGGTTTTCCCGGTAATCCGTATTTGAA (site AGGACGGCTTT) | 1.73 |
| AGGACTACATGGACCGGTTTTCCCGGTAATCCGTATTTGAC (site AAGACTACTGT) | 0.848 |
| AGGACTACATGGACCGGTTTTCCCGGTAATCCGTATTTGAC (site ACGACTACTGT) | 0.945 |
| AGGACTACATGGACCGGTTTTCCCGGTAATCCGTATTTGAC (site AGAACTACTGT) | 2.18 |
| AGGACTACATGGACCGGTTTTCCCGGTAATCCGTATTTGAC (site AGCACTACTGT) | 0.0103 |
| AGGACTACATGGACCGGTTTTCCCGGTAATCCGTATTTGAC (site AGGAATACTGT) | 1.29 |
| AGGACTACATGGACCGGTTTTCCCGGTAATCCGTATTTGAC (site AGGACAACTGT) | 0.797 |
| AGGACTACATGGACCGGTTTTCCCGGTAATCCGTATTTGAC (site AGGACCACTGT) | 0.969 |
| AGGACTACATGGACCGGTTTTCCCGGTAATCCGTATTTGAC (site AGGACGACTGT) | 0.00571 |
| AGGACTACATGGACCGGTTTTCCCGGTAATCCGTATTTGAC (site AGGACTACTAT) | 0.00291 |
| AGGACTACATGGACCGGTTTTCCCGGTAATCCGTATTTGAC (site AGGACTACTCT) | 0.0111 |
| AGGACTACATGGACCGGTTTTCCCGGTAATCCGTATTTGAC (site AGGACTACTGA) | 0 |
| AGGACTACATGGACCGGTTTTCCCGGTAATCCGTATTTGAC (site AGGACTACTGC) | 0.68 |
| AGGACTACATGGACCGGTTTTCCCGGTAATCCGTATTTGAC (site AGGACTACTGG) | 0 |
| AGGACTACATGGACCGGTTTTCCCGGTAATCCGTATTTGAC (site AGGACTACTGT) | 2.29 |
| AGGACTACATGGACCGGTTTTCCCGGTAATCCGTATTTGAC (site AGGACTACTTT) | 0.0694 |
| AGGACTACATGGACCGGTTTTCCCGGTAATCCGTATTTGAC (site AGGACTCCTGT) | 0 |

| Sequence | recombinant UMI read abundance (log10) |
| --- | --- |
| AGGACTACATGGACCGGTTTTCCCGGTAATCCGTATTTGAC (site AGGACTGCTGT) | 0.359 |
| AGGACTACATGGACCGGTTTTCCCGGTAATCCGTATTTGAC (site AGGACTTCTGT) | 0.0138 |
| AGGACTACATGGACCGGTTTTCCCGGTAATCCGTATTTGAC (site AGGAGTACTGT) | 0 |
| AGGACTACATGGACCGGTTTTCCCGGTAATCCGTATTTGAC (site AGGATTACTGT) | 0.471 |
| AGGACTACATGGACCGGTTTTCCCGGTAATCCGTATTTGAC (site AGGCCTACTGT) | 0.988 |
| AGGACTACATGGACCGGTTTTCCCGGTAATCCGTATTTGAC (site AGGGCTACTGT) | 0 |
| AGGACTACATGGACCGGTTTTCCCGGTAATCCGTATTTGAC (site AGGTCTACTGT) | 1.2 |
| AGGACTACATGGACCGGTTTTCCCGGTAATCCGTATTTGAC (site AGTACTACTGT) | 0.941 |
| AGGACTACATGGACCGGTTTTCCCGGTAATCCGTATTTGAC (site ATGACTACTGT) | 1.13 |
| AGGACTACATGGACCGGTTTTCCCGGTAATCCGTATTTGAC (site CGGACTACTGT) | 0.831 |
| AGGACTACATGGACCGGTTTTCCCGGTAATCCGTATTTGAC (site GGGACTACTGT) | 0 |
| AGGACTACATGGACCGGTTTTCCCGGTAATCCGTATTTGAC (site TGGACTACTGT) | 0.901 |
| AGGACTACATGGACCGGTTTTCCCGGTAATCCGTATTTGCA (site AGGAAGACTTG) | 0 |
| AGGACTACATGGACCGGTTTTCCCGGTAATCCGTATTTGCA (site AGGACTACTTG) | 2.22 |
| AGGACTCCATGGACCGGTTTTCCCGGTAATCCGTATTTGAC (site AGGACTACTGT) | 0 |
| AGGACTCCATGGACCGGTTTTCCCGGTAATCCGTATTTGAC (site AGGACTCCTGT) | 0.719 |
| AGGACTCCATGGACCGGTTTTCCCGGTAATCCGTATTTGAC (site AGGACTGCTGT) | 0 |
| AGGACTCCATGGACCGGTTTTCCCGGTAATCCGTATTTGAC (site AGGACTTCTGT) | 0 |
| AGGACTGCATGGACCGGTTTTCCCGGTAATCCGTATTTGAC (site AGGACTACTGT) | 2.15 |
| AGGACTGCATGGACCGGTTTTCCCGGTAATCCGTATTTGAC (site AGGACTCCTGT) | 0.533 |
| AGGACTGCATGGACCGGTTTTCCCGGTAATCCGTATTTGAC (site AGGACTGCTGT) | 2.92 |
| AGGACTGCATGGACCGGTTTTCCCGGTAATCCGTATTTGAC (site AGGACTTCTGT) | 0 |
